Data reported in US11591333B2, “Substituted pyrrolo[2,3-d]pyrimidines as janus kinase inhibitors” (CINKATE PHARM TECH (SHANGHAI) CO.,LTD., priority 2016, dated 2023).
pEC50: −log10 of the molar value.

How the values were obtained:
[1] = system: mouse spleen cells; assay: Mitogen ConA-induced mouse spleen cell proliferation (CCK8); format: cell-based; details: for pEC50: mouse spleen cells, ConA as stimulus, read-out: Inhibition activity (EC50), ConA induction; for concentration at which inhibition of lymphocyte proliferation began: ConA as the stimuli; for inhibition to the non-specific immunosuppression induced by mitogen: in words, compared with specific immunity
Method: […] 5*10^5/well, with or without 50 uL of ConA at a concentration of 2.5 ug/uL as well as 50 uL inhibitors at a different concentration, while the negative control wells were supplemented with 50 uL of complete 1640 medium. After 48 hours of culture, the cell culture supernatant was collected for 100 uL/well for subsequent ELISA, and 10 uL/well of CCK8 reagent was added to detect the cell proliferation. The proliferation of immune cells was microscopic observed in each group.
[…] mouse spleen cells were adjusted to a cell concentration of 5*10^6/mL in complete 1640 medium, […], i.e., 5*10^5/well, […], as well as 50 uL of different concentrations of inhibitor (compound 1-6) while negative control well was supplemented with 50 uL of complete 1640 medium. […] The proliferation of immune cells was microscopic observed in each group, and the EC50 value was calculated.

[2] = system: mouse spleen cells; assay: CD3/CD28 antibody-induced mouse spleen cell proliferation (CCK8); format: cell-based; details: for pEC50: mouse spleen cells, CD3/CD28 antibodies as stimulus, read-out: Inhibition activity (EC50), CD3/CD28; for concentration at which inhibition of lymphocyte proliferation began: Anti-CD3/CD28 as the stimuli
[3] = system: JAK2/JAK1; assay: JAK enzyme activity inhibition, JAK2 versus JAK1 selectivity; format: biochemical; details: ratio of JAK2 IC50 to JAK1 IC50
Method: (§1) The tested compounds were dissolved in DMSO to provide a 10 mM mother solution. The compound was diluted to 1 mM in DMSO before use, and was gradient diluted by 3 folds to altogether 11 concentrations. After the buffer was prepared, JAK1, JAK2, JAK3 and the substrate were mixed with pre-diluted compounds in different concentrations, and allowed to stand at room temperature for 30 minutes, while each concentration was duplicated for twice. ATP was added and reacted at room temperature for 90 minutes, and antibody was added for detection after the reaction was completed.

[4] = system: JAK3/JAK1; assay: JAK enzyme activity inhibition, JAK3 versus JAK1 selectivity; format: biochemical; details: ratio of JAK3 IC50 to JAK1 IC50
Method: as §1

Compound | pEC50 [1] | pEC50 [2] | Selectivity fold JAK2/JAK1 IC50 ratio [3] [fold] | Selectivity fold JAK3/JAK1 IC50 ratio [4] [fold] | concentration at which inhibition of lymphocyte proliferation began [1] [µM] | inhibition to the non-specific immunosuppression induced by mitogen [1] | concentration at which inhibition of lymphocyte proliferation began [2] [µM]
C/C(O)=C(\C#N)C(=O)Nc1ccc(C(F)(F)F)cc1 [Compound A771726, A771726, reference compound] | < 3.70 | < 3.70 |  |  |  |  | 
2-cyano-3-hydroxy-2-butene-{4-[methyl-(7H-pyrrolo[2,3-d]pyrimidin-4-yl)-amino]-cyclohexyl]-amide [Compound 5] | < 3.70 | < 4.00 | >10 | >10 |  |  | 
C[C@@H]1CCN(C(=O)CC#N)C[C@@H]1N(C)c1ncnc2[nH]ccc12 [Tofatinib, reference compound] |  |  | 2 | <1 |  |  | 
CN(c1ccc(N)cc1)c1ncnc2[nH]ccc12 [Compound 1, N-Methyl-N-(7H-pyrrolo[2,3-d]pyrimidin-4-yl)phenyl-1,4-diamine] | 4.27 | 4.64 | 7 | 2 | 10 | weak | 10
Cc1oncc1C(=O)Nc1ccc(N(C)c2ncnc3[nH]ccc23)cc1 [Compound 2] | 4.39 | 4.82 | >10 | >10 | 10 |  | 50
2-cyano-3-hydroxy-2-butene-{4-[methyl-(7H-pyrrolo[2,3-d]pyrimidin-4-yl)-amino]-phenyl]-amide [Compound 4] | 4.21 | 4.51 | 7 | 5 | 100 |  | 50
5-methyl-isoxazole-{4-methyl-(7H-pyrrolo[2,3-d]pyrimidin-4-yl)-amino]-cyclohex yl}-amine [Compound 3] | 4.04 | 4.18 | >10 | >10 | 10 | weak | 10
